Laboratory results: ChEMBL document CHEMBL3045179, “Mode of Action and QSAR Studies of Nitrification Inhibitors” (J Pestic Sci, 1997)

How the values were obtained:
Nitrosomonas europaea [1] = assay: Inhibition of Nitrosomonas europaea ATCC 25978-mediated nitrification activity assessed as nitrite nitrogen formation after 7 to 10 days by Griess-Ilosvay method; format: functional, organism-based; conditions: read-out: pI50 (converted)
Nitrosomonas europaea [2] = assay: Inhibition of Nitrosomonas europaea ATCC 25978-mediated nitrification activity assessed as nitrite nitrogen formation at 0.1 mg/kg after 7 to 10 days by Griess-Ilosvay method relative to control; format: functional; conditions: values are per cent of control
[3] = Octanol-water partition coefficient, log P of the compound; format: physicochemical
Nitrosomonas sp. TK794 [4] = assay: Inhibition of Nitrosomonas sp. TK794-mediated nitrification activity assessed as nitrite nitrogen formation at 5 mg/kg after 7 to 10 days by Griess-Ilosvay method relative to control; format: functional
Nitrosomonas europaea [5] = assay: Inhibition of Nitrosomonas europaea ATCC 25978-mediated nitrification activity assessed as nitrite nitrogen formation at 5 mg/kg after 7 to 10 days by Griess-Ilosvay method relative to control; format: functional
Nitrosomonas sp. TK794 [6] = assay: Inhibition of Nitrosomonas sp. TK794-mediated nitrification activity assessed as nitrite nitrogen formation at 0.5 mg/kg after 7 to 10 days by Griess-Ilosvay method relative to control; format: functional
Nitrosomonas europaea [7] = assay: Inhibition of Nitrosomonas europaea ATCC 25978-mediated nitrification activity assessed as nitrite nitrogen formation at 0.5 mg/kg after 7 to 10 days by Griess-Ilosvay method relative to control; format: functional; conditions: values are per cent of control
Nitrosomonas sp. TK794 [8] = assay: Inhibition of Nitrosomonas sp. TK794-mediated nitrification activity assessed as nitrite nitrogen formation at 1 mg/kg after 7 to 10 days by Griess-Ilosvay method relative to control; format: functional
Nitrosomonas europaea [9] = assay: Inhibition of Nitrosomonas europaea ATCC 25978-mediated nitrification activity assessed as nitrite nitrogen formation at 10 mg/kg after 7 to 10 days by Griess-Ilosvay method relative to control; format: functional
Nitrosomonas sp. TK794 [10] = assay: Inhibition of Nitrosomonas sp. TK794-mediated nitrification activity assessed as nitrite nitrogen formation at 50 mg/kg after 7 to 10 days by Griess-Ilosvay method relative to control; format: functional
Nitrosomonas europaea [11] = assay: Inhibition of Nitrosomonas europaea ATCC 25978-mediated nitrification activity assessed as nitrite nitrogen formation at 1 mg/kg after 7 to 10 days by Griess-Ilosvay method relative to control; format: functional; conditions: values are per cent of control
Nitrosomonas sp. TK794 [12] = assay: Inhibition of Nitrosomonas sp. TK794-mediated nitrification activity assessed as nitrite nitrogen formation at 25 mg/kg after 7 to 10 days by Griess-Ilosvay method relative to control; format: functional
Nitrosomonas sp. TK794 [13] = assay: Inhibition of Nitrosomonas sp. TK794-mediated nitrification activity assessed as nitrite nitrogen formation at 500 mg/kg after 7 to 10 days by Griess-Ilosvay method relative to control; format: functional
Nitrosomonas europaea [14] = assay: Inhibition of Nitrosomonas europaea ATCC 25978-mediated nitrification activity assessed as nitrite nitrogen formation at 200 mg/kg after 7 to 10 days by Griess-Ilosvay method relative to control; format: functional
Nitrosomonas sp. TK794 [15] = assay: Inhibition of Nitrosomonas sp. TK794-mediated nitrification activity assessed as nitrite nitrogen formation at 0.1 mg/kg after 7 to 10 days by Griess-Ilosvay method relative to control; format: functional
Nitrosomonas sp. TK794 [16] = assay: Inhibition of Nitrosomonas sp. TK794-mediated nitrification activity assessed as nitrite nitrogen formation at 200 mg/kg after 7 to 10 days by Griess-Ilosvay method relative to control; format: functional

Structure (SMILES) | IC50 (Nitrosomonas europaea [1]) | residual activity at 0.1 mg/kg (Nitrosomonas europaea [2]) | logP ([3]; read-out: logP) | other results
CCCCN(C)c1nc(C)nc(C(Cl)(Cl)Cl)n1 | 589 nM | 59.5% | 5.65 | 
CCCCCCCCCCCCNc1nc(C(Cl)(Cl)Cl)nc(C(Cl)(Cl)Cl)n1 | 5750 nM |  | 8.96 | inhibition in vivo at 5 mg/kg (Nitrosomonas sp. TK794 [4]): 55.2%; inhibition in vivo at 5 mg/kg (Nitrosomonas europaea [5]): 50%
CCNc1nc(-c2ccccc2)nc(C(Cl)(Cl)Cl)n1 | 380 nM | 45.3% | 5.23 | inhibition in vivo at 0.5 mg/kg (Nitrosomonas sp. TK794 [6]): 47.8%
Fc1ccc(Oc2nc(C(Cl)(Cl)Cl)nc(C(Cl)(Cl)Cl)n2)c(Cl)c1 | 1100 nM |  | 5.74 | residual activity at 0.5 mg/kg (Nitrosomonas europaea [7]): 52.2%; inhibition in vivo at 1 mg/kg (Nitrosomonas sp. TK794 [8]): 57.8%
CCCOc1nc(SC)nc(C(Cl)(Cl)Cl)n1 | 257 nM | 47.6% | 5.17 | inhibition in vivo at 1 mg/kg (Nitrosomonas sp. TK794 [8]): 60%
CNc1nc(-c2ccccc2)nc(C(Cl)(Cl)Cl)n1 | 372 nM | 53.2% | 4.7 | inhibition in vivo at 0.5 mg/kg (Nitrosomonas sp. TK794 [6]): 57.1%
Cc1nc(C(Cl)(Cl)Cl)nc(C(Cl)(Cl)Cl)n1 | 708 nM |  | 4.07 | residual activity at 0.5 mg/kg (Nitrosomonas europaea [7]): 47.2%; inhibition in vivo at 0.5 mg/kg (Nitrosomonas sp. TK794 [6]): 65%
CCCCCCCCCCNc1nc(C)nc(C(Cl)(Cl)Cl)n1 | 9120 nM |  | 8.27 | inhibition in vivo at 10 mg/kg (Nitrosomonas europaea [9]): 56.2%; inhibition in vivo at 50 mg/kg (Nitrosomonas sp. TK794 [10]): 50%
CCCCNc1nc(C(Cl)(Cl)Cl)nc(C(Cl)(Cl)Cl)n1 | 977 nM | 72.4% | 4.72 | 
ClC(Cl)(Cl)c1nc(Nc2ccccc2)nc(C(Cl)(Cl)Cl)n1 |  |  | 4.33 | inhibition in vivo at 0.5 mg/kg (Nitrosomonas sp. TK794 [6]): 55%
CCOc1nc(SC)nc(C(Cl)(Cl)Cl)n1 | 676 nM | 64.8% | 4.64 | inhibition in vivo at 1 mg/kg (Nitrosomonas sp. TK794 [8]): 60%
Nc1nc(-c2ccccc2)nc(C(Cl)(Cl)Cl)n1 | 363 nM |  | 4.02 | inhibition in vivo at 5 mg/kg (Nitrosomonas sp. TK794 [4]): 49.7%; residual activity at 1 mg/kg (Nitrosomonas europaea [11]): 20.8%
CCCCc1nc(N)nc(C(Cl)(Cl)Cl)n1 | 1200 nM |  | 4.4 | residual activity at 1 mg/kg (Nitrosomonas europaea [11]): 29%; inhibition in vivo at 1 mg/kg (Nitrosomonas sp. TK794 [8]): 39.7%
CCOc1nc(C(Cl)(Cl)Cl)nc(C(Cl)(Cl)Cl)n1 | 437 nM |  | 4.14 | residual activity at 1 mg/kg (Nitrosomonas europaea [11]): 27.3%; inhibition in vivo at 1 mg/kg (Nitrosomonas sp. TK794 [8]): 25.8%
ClC(Cl)(Cl)c1nc(C(Cl)(Cl)Cl)nc(C(Cl)(Cl)Cl)n1 |  |  | 3.71 | inhibition in vivo at 25 mg/kg (Nitrosomonas sp. TK794 [12]): 50%
CSc1nc(N)nc(C(Cl)(Cl)Cl)n1 | 1260 nM |  | 2.96 | inhibition in vivo at 5 mg/kg (Nitrosomonas sp. TK794 [4]): 27%; residual activity at 0.5 mg/kg (Nitrosomonas europaea [7]): 65.5%
CCCCCNc1nc(C(Cl)(Cl)Cl)nc(C(Cl)(Cl)Cl)n1 | 1230 nM | 67.1% | 5.25 | 
COc1nc(-c2ccccc2)nc(C(Cl)(Cl)Cl)n1 | 229 nM | 31.4% | 5.17 | inhibition in vivo at 1 mg/kg (Nitrosomonas sp. TK794 [8]): 39%
CCCCCCCCCCCCNc1nc(C)nc(C(Cl)(Cl)Cl)n1 | 45700 nM |  |  | inhibition in vivo at 10 mg/kg (Nitrosomonas europaea [9]): 69.4%; logP [3]: 9.3; inhibition in vivo at 500 mg/kg (Nitrosomonas sp. TK794 [13]): 33.2%
CCCCN(CC)c1nc(C)nc(C(Cl)(Cl)Cl)n1 | 955 nM | 52.9% | 6.17 | 
CCCCCCCCCCCCCCCCNc1nc(C(Cl)(Cl)Cl)nc(C(Cl)(Cl)Cl)n1 |  |  |  | inhibition in vivo at 200 mg/kg (Nitrosomonas europaea [14]): 52.8%; logP [3]: 11.05; inhibition in vivo at 500 mg/kg (Nitrosomonas sp. TK794 [13]): 52.9%
COc1nc(C(Cl)(Cl)Cl)nc(C(Cl)(Cl)Cl)n1 | 457 nM | 27.4% | 3.59 | inhibition in vivo at 1 mg/kg (Nitrosomonas sp. TK794 [8]): 47.8%
CN(C)c1nc(C(Cl)(Cl)Cl)nc(C(Cl)(Cl)Cl)n1 |  |  | 3.7 | inhibition in vivo at 0.5 mg/kg (Nitrosomonas sp. TK794 [6]): 60.5%
CCCCCNc1nc(C)nc(C(Cl)(Cl)Cl)n1 | 501 nM | 61.5% | 5.61 | 
CCNc1nc(OC)nc(C(Cl)(Cl)Cl)n1 | 331 nM | 49.1% | 3.57 | inhibition in vivo at 0.1 mg/kg (Nitrosomonas sp. TK794 [15]): 56.8%
ClC(Cl)(Cl)c1nc(-c2ccccc2)nc(C(Cl)(Cl)Cl)n1 |  |  | 5.26 | inhibition in vivo at 200 mg/kg (Nitrosomonas sp. TK794 [16]): 65.8%
CCOc1nc(-c2ccccc2)nc(C(Cl)(Cl)Cl)n1 | 1050 nM |  | 5.7 | residual activity at 1 mg/kg (Nitrosomonas europaea [11]): 31.4%; inhibition in vivo at 1 mg/kg (Nitrosomonas sp. TK794 [8]): 51.2%
